The assay addresses 14-3-3σΔC / ERα phosphopeptide complex (crystals) (Homo sapiens, UniProt P03372+P31947). Description: X-ray crystallography, soaking. The class given is binding. Particulars: ternary complex with Ac-ERα phosphopeptide.

Structures are written as SMILES.

Sequence of 14-3-3σΔC / ERα phosphopeptide complex (crystals) (P31947 1-231, stated change not applied, other chains not shown): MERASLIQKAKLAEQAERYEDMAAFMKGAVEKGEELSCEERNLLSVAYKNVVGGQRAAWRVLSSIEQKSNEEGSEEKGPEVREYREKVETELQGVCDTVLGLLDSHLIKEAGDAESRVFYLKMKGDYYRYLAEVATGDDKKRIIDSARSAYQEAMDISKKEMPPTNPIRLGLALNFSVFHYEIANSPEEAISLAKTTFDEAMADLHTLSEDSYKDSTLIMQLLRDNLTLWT

`C=CC(C)(C)OC[C@H]1O[C@H](O[C@@H]2C3=C([C@H](C)CNC(C)=O)C[C@H](O)[C@]3(C)/C=C3\[C@@H](COC)CC[C@H]3[C@@H](C)[C@H]2O)[C@H](O)[C@@H](O)[C@@H]1O` [FC-NAc]: the “X-ray crystallography, soaking” value is recorded as 8BZH (FC-NAc).

On to `COC[C@H]1CC[C@@H]2/C1=C/[C@]1(C)C(=C([C@H](C)CNC(C)=O)C[C@@H]1O)[C@@H](O)[C@H](O)[C@@H]2C` [FC-NAg], for which the “X-ray crystallography, soaking” value was 8BZT (FC-NAg).
